Reference: PMC10883716, “Conformational dynamics of adenylate kinase in crystals” (Structural Dynamics, 2024)

What was measured:
[1] = biological target: T1, AKign (adenylate kinase from Methanotorrus igneus) (Methanotorris igneus, UniProt P43408); test: X-ray crystallography, […] A; assay type: binding; conditions: 4 mM AMP, 8% PEG 8000, 100 mM magnesium acetate, sodium acetate pH 4.5, 20 °C; two per protomer, in AMP and ATP sites
T1 construct: gene adkA; full length, residues 1-192; synthetic gene in pET21a, C-terminal His6 tag kept (disordered, unbuilt); E. coli BL21(DE3); homotrimer
T1 sequence (P43408 whole entry, the tested form may be a part): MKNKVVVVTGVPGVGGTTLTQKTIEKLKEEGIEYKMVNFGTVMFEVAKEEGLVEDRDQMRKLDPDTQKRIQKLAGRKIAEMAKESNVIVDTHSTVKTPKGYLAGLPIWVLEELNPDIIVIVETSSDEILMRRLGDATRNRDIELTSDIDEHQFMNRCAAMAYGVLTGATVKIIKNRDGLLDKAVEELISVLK

[2] = biological target: T1, AKign (adenylate kinase from Methanotorrus igneus); test: X-ray crystallography, […] A; assay type: binding; conditions: 4 mM Ap5A, 17% PEG 3350, 250 mM sodium malonate, 20 °C; one per protomer, spans AMP and ATP sites

| SMILES | X-ray crystallography, 2.40 A [1] | X-ray crystallography, 2.25 A [2] |
| --- | --- | --- |
| Nc1ncnc2c1ncn2[C@@H]1O[C@H](COP(=O)(O)O)[C@@H](O)[C@H]1O [AMP] | AMP-bound AKign structure, which comprises two bound AMP molecules per AKign protomer |  |
| Nc1ncnc2c1ncn2[C@@H]1O[C@H](COP(=O)(O)OP(=O)(O)OP(=O)(O)OP(=O)(O)OP(=O)(O)OC[C@H]2O[C@@H](n3cnc4c(N)ncnc43)[C@H](O)[C@@H]2O)[C@@H](O)[C@H]1O [Ap5A, P^1,P^5-di(adenosine 5′)-pentaphosphate] |  | We also solved the AKign structure with the bound inhibitor, Ap5A. |
